Experimental data published in PubChem BioAssay (NCI).
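Cells were grown in 96-well plates and exposed to each compound for 48 hours at five concentrations; endpoints were interpolated linearly between bracketing concentrations, or set to the highest concentration if not reached. The concentration for 50% growth inhibition is given as GI50. TGI marks complete inhibition of growth.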

Experiments:
Experiment in all cases: NCI tumour cell line growth inhibition, 48 h
[1] = tested on: 786-0 renal
[2] = tested on: A498 renal
[3] = tested on: A549 NSCLC
[4] = tested on: ACHN renal
[5] = tested on: BT-549 breast
[6] = tested on: CAKI-1 renal
[7] = tested on: CCRF-CEM leukemia
[8] = tested on: DU-145 prostate
[9] = tested on: EKVX NSCLC
[10] = tested on: HCC-2998 colon
[11] = tested on: HCT-116 colon
[12] = tested on: HCT-15 colon
[13] = tested on: HL-60(TB) leukemia
[14] = tested on: HOP-62 NSCLC
[15] = tested on: HS 578T breast
[16] = tested on: HT29 colon
[17] = tested on: IGROV1 ovarian
[18] = tested on: K-562 leukemia
[19] = tested on: KM12 colon
[20] = tested on: LOX IMVI melanoma
[21] = tested on: M14 melanoma
[22] = tested on: MALME-3M melanoma
[23] = tested on: MCF7 breast
[24] = tested on: MDA-MB-231 breast
[25] = tested on: MDA-MB-435
[26] = tested on: MOLT-4 leukemia
[27] = tested on: NCI-H460 lung
[28] = tested on: OVCAR-4 ovarian
[29] = tested on: OVCAR-8 ovarian
[30] = tested on: PC-3 prostate
[31] = tested on: RXF 393 renal
[32] = tested on: SF-295 CNS
[33] = tested on: SF-539 CNS
[34] = tested on: SK-MEL-2 melanoma
[35] = tested on: SN12C renal
[36] = tested on: SNB-19 CNS
[37] = tested on: SNB-75 CNS
[38] = tested on: U251 CNS
[39] = tested on: UACC-257 melanoma
[40] = tested on: UACC-62 melanoma
[41] = tested on: UO-31 renal
[42] = tested on: NCI/ADR-RES ovarian

Cn1cc(-c2cc3c(N4CCN(c5ncc([C@@](C)(N)c6ccc(F)cc6)cn5)CC4)ncnn3c2)cn1
GI50 [1]: 3.15 µM | TGI [1]: > 100 µM | GI50 [2]: 6.24 µM | TGI [2]: > 100 µM | GI50 [3]: 5.61 µM | TGI [3]: > 100 µM | GI50 [4]: 3.26 µM | TGI [4]: > 100 µM | GI50 [5]: 5.15 µM | TGI [5]: > 100 µM | GI50 [6]: 2.63 µM | TGI [6]: > 100 µM | GI50 [7]: 2.87 µM | TGI [7]: > 100 µM | GI50 [8]: > 100 µM | TGI [8]: > 100 µM | GI50 [9]: 4.14 µM | TGI [9]: > 100 µM | GI50 [10]: 4.23 µM | TGI [10]: > 100 µM | GI50 [11]: 3.15 µM | TGI [11]: > 100 µM | GI50 [12]: 3.62 µM | TGI [12]: > 100 µM | GI50 [13]: 3.8 µM | TGI [13]: > 100 µM | GI50 [14]: 6.31 µM | TGI [14]: > 100 µM | GI50 [15]: 1.82 µM | TGI [15]: > 100 µM | GI50 [16]: 3.35 µM | TGI [16]: > 100 µM | GI50 [17]: 2.7 µM | TGI [17]: > 100 µM | GI50 [18]: 2.49 µM | TGI [18]: > 100 µM | GI50 [19]: 3.49 µM | TGI [19]: > 100 µM | GI50 [20]: 3.27 µM | TGI [20]: > 100 µM | GI50 [21]: 4.42 µM | TGI [21]: > 100 µM | GI50 [22]: 4.16 µM | TGI [22]: > 100 µM | GI50 [23]: 2.56 µM | TGI [23]: > 100 µM | GI50 [24]: 4.77 µM | TGI [24]: > 100 µM | GI50 [25]: 3.56 µM | TGI [25]: > 100 µM | GI50 [26]: 2.52 µM | TGI [26]: > 100 µM | GI50 [27]: 4.41 µM | TGI [27]: > 100 µM | GI50 [28]: 2.45 µM | TGI [28]: > 100 µM | GI50 [29]: 4.11 µM | TGI [29]: > 100 µM | GI50 [30]: 1.99 µM | TGI [30]: > 100 µM | GI50 [31]: 2.66 µM | TGI [31]: > 100 µM | GI50 [32]: 3.56 µM | TGI [32]: > 100 µM | GI50 [33]: 1.6 µM | TGI [33]: > 100 µM | GI50 [34]: 25.4 µM | TGI [34]: > 100 µM | GI50 [35]: 5.46 µM | TGI [35]: > 100 µM | GI50 [36]: 9.63 µM | TGI [36]: > 100 µM | GI50 [37]: 1.39 µM | TGI [37]: > 100 µM | GI50 [38]: 3.67 µM | TGI [38]: > 100 µM | GI50 [39]: 5 µM | TGI [39]: > 100 µM | GI50 [40]: 5.23 µM | TGI [40]: > 100 µM | GI50 [41]: 1.84 µM | TGI [41]: > 100 µM

N=C(N)c1ccc(OCCCCCCCCCCOc2ccc(C(=N)N)cc2)cc1
GI50 [4]: 1.54 µM | TGI [4]: 2.88 µM | GI50 [8]: 1.61 µM | TGI [8]: 3.01 µM | GI50 [10]: 1.29 µM | TGI [10]: 2.79 µM | GI50 [42]: 17.7 µM | TGI [42]: 83.7 µM | GI50 [31]: 1.28 µM | TGI [31]: 2.87 µM
